Assay results taken from ChEMBL document CHEMBL3988181, “GlaxoSmithKline Published Kinase Inhibitor Set 2 Onchocerca lienalis Screening Data”.

Test: GSK PKIS2: Screen against O. lienalis microfilariae, single point, at 3.1uM to assess reduction in motility. Compounds were also tested for cytotoxicity against Rhesus Monkey LLCMK2 cells.
Format: functional, Onchocerca lienalis, LLC-MK2
Conditions: CELL_LINE LLCMK2; CELL_SUPPLIER ECACC; CONC 3.1 uM; ORGANISM_SUPPLIER Extracted from peri-umbilical skin obtained from naturally infected cattle in the UK; temperature 37 degree C

| Structure (SMILES) | MOTILITY REDUCTION/CYTOTOXICITY |
| --- | --- |
| COc1ccccc1CNC(=O)c1cc(C(=O)c2ccccc2C)c[nH]1 | 86.7% |
| C[C@@H](Oc1cc(-n2cnc3ccc(-c4ccncc4)cc32)sc1C(N)=O)c1ccccc1Cl | 0% |
| Nc1n[nH]c2cc(-c3ccccn3)ccc12 | 0% |
| C[C@@H]1CCCCN1c1cc(-c2ccc3c(N)n[nH]c3c2)nc(N)n1 | 13.4% |
| CNc1nc(-c2ccc3c(N)n[nH]c3c2)cc(N2C[C@@H](C(=O)Nc3ccccc3)CC[C@H]2C)n1 | 0% |
| CC[C@@H]1CO[C@H](C(=O)Nc2ccccc2)CN1c1cc(-c2ccc3c(N)n[nH]c3c2)nc(NC)n1 | 0% |
| CNc1nc(-c2ccc3c(N)n[nH]c3c2)cc(N2C[C@@H](C(=O)NC3CCCCC3)OC[C@H]2C)n1 | 0% |
| CNc1cc(-c2ccc3c(N)n[nH]c3c2)nc(N)n1 | 0% |
| CN(C)c1cc(-c2ccc3c(N)n[nH]c3c2)nc(N)n1 | 0% |
| Nc1nc(-c2ccc3c(N)n[nH]c3c2)cc(N2CCCC2)n1 | 0% |
| CC(C)c1nc(-c2cccc(NS(=O)(=O)c3c(F)cccc3F)c2F)c(-c2ccnc(Nc3ccc(N4CCOCC4)nc3)n2)s1 | 93.4% |
| Nc1nc(-c2ccccn2)c(-c2ccnc3ccccc23)s1 | 0% |
| Nc1nc(-c2ccccc2F)c(-c2ccnc3ccccc23)s1 | 46.7% |
| OCCCNc1nccc(-c2c(-c3cccc(C(F)(F)F)c3)nn3cc(C(F)(F)F)ccc23)n1 | 0% |
| O=c1cc(N2CCOCC2)nc2n(Cc3ccccc3F)ccn12 | 0% |
| O=c1cc(N2CCOCC2)nc2n(Cc3cccc(C(F)(F)F)c3)ccn12 | 26.7% |
| Cc1c(Cn2ccn3c(=O)nc(N4CCOCC4)cc23)cccc1C(F)(F)F | 0% |
| Cc1ccc(-c2cc(-c3c[nH]nc3-c3ccccn3)ccn2)cc1 | 0% |
| c1ccc(-c2cc(-c3c[nH]nc3-c3ccccn3)ccn2)cc1 | 0% |
| Nc1nccc2scc(-c3ccc4c(c3)CCN4C(=O)Cc3ccccc3)c12 | 0% |
| Nc1ncnc2occ(-c3ccc4c(c3)CCN4C(=O)Cc3cc(F)ccc3F)c12 | 16.7% |
| Cn1cc(-c2ccc3c(c2)CCN3C(=O)Cc2cccc(F)c2)c2c(N)ncnc21 | 33.4% |

| Structure (SMILES) | MOTILITY REDUCTION/CYTOTOXICITY |
| --- | --- |
| COc1cc2ncn(-c3cc(OCC4CCCO4)c(C(N)=O)s3)c2cc1OC (stereo not drawn) | 46.7% |
| COC(=O)Nc1nc2ccc(Oc3ccc(NC(=O)Nc4cc(F)ccc4F)cc3)cc2[nH]1 | 40% |
| COC(=O)Nc1nc2ccc(Oc3ccc(NC(=O)Nc4cc(C(F)(F)F)ccc4F)cn3)cc2[nH]1 | 0% |
| COC(=O)Nc1nc2ccc(Oc3ccc(CC(=O)Nc4cc(C(F)(F)F)ccc4F)cc3)cc2[nH]1 | 33.4% |
| c1ccc(-c2n[nH]cc2-c2ccnc3ccccc23)nc1 | 0% |
| c1ccc(Cn2ccc3cc(Nc4ncnc5ccccc45)ccc32)cc1 | 33.4% |
| c1ccc(Cn2cnc3cc(Nc4ncnc5ccccc45)ccc32)cc1 | 16.7% |
| FC(F)(F)c1ccc(-c2cc(-c3c[nH]nc3-c3ccccn3)ccn2)cc1 | 0% |
| Cc1nnc(-c2ccc(C)c(-c3ccc(C(=O)Nc4ccc(NS(C)(=O)=O)cc4)cc3)c2)o1 | 0% |
| NCC(NCc1ccc(-c2ccnc3[nH]ccc23)s1)c1ccccc1 (stereo not drawn) | 0% |
| NCCC(NC(=O)c1cc(Br)c(-c2ccnc3[nH]ccc23)s1)c1ccccc1 (stereo not drawn) | 13.4% |
| CC(C)NCC(Cc1ccccc1)NC(=O)c1cc(Br)c(-c2ccnc3[nH]ccc23)s1 (stereo not drawn) | 66.7% |
| CCNCC(Cc1ccccc1)NC(=O)c1cc(Br)c(-c2ccnc3[nH]ccc23)s1 (stereo not drawn) | 0% |
| NCCNS(=O)(=O)c1ccc(-c2ccnc3[nH]ccc23)cc1 | 0% |
| Fc1cccc(COc2ccc(Nc3ncnc4sc(-c5ccc[nH]5)cc34)cc2Cl)c1 | 100% |
| COc1ccc(Nc2nccc(NCCNC(=O)Nc3ccccc3F)n2)cc1 | 0% |
| Cc1ccn2nc(-c3ccc(F)cc3)c(-c3ccncc3)c2c1 | 0% |
| Cc1ccc(NC(=O)Nc2ccc(Cl)cc2)cc1-c1ccc(C(=O)Nc2ccncc2)cc1 | 86.7% |
| Cc1ccc(NC(=O)Nc2cccc(Cl)c2)cc1-c1ccc(C(=O)Nc2ccncc2)cc1 | 33.4% |
| Cc1cc(N2Cc3ccccc3C2)nc(Nc2ccc(S(=O)(=O)N3CCOCC3)cc2)n1 | 0% |
| CC(=O)c1c(-c2ccncc2)[nH]c(-c2ccncc2)c1C | 33.4% |
| O=C(NCCNc1ccnc(Nc2ccc(F)cc2)n1)Nc1ccccc1F | 0% |

| Structure (SMILES) | MOTILITY REDUCTION/CYTOTOXICITY |
| --- | --- |
| NS(=O)(=O)CCc1cccc(Nc2nccc(-c3c(-c4cccc(NC(=O)c5c(F)cccc5F)c4)nn4ccccc34)n2)c1 | 33.4% |
| Cc1ccc(C(=O)Nc2ccc(Nc3ccnc4cc(-c5ccccn5)ccc34)cc2O)cc1 | 0% |
| Fc1ccccc1COc1ccc(Nc2ncnc3ccc(-c4nnc(C(F)(F)F)o4)cc23)cc1Cl | 0% |
| COc1cccc(NC(=O)NCCNc2ccnc(Nc3ccc(F)cc3)n2)c1 | 33.4% |
| Cn1cncc1-c1cc2c(Nc3ccc(OCc4ccccc4)cc3)ncnc2cn1 | 0% |
| Cc1ccc(NC(=O)c2ccc(Cl)cc2)cc1-c1ccc(C(=O)Nc2ccncc2)cc1 | 66.7% |
| Clc1cc(Cl)cc(Nc2ccnc(Nc3cc(Cl)cc(Cl)c3)n2)c1 | 86.7% |
| COc1cc2ncnc(Nc3ccc(OCc4ccccc4Br)c(Cl)c3)c2cc1OC.Cl | 0% |
| Cc1cc(NCC(c2ccccc2)c2ccccc2)nc(NCc2ccc(C(F)(F)F)cc2)n1 | 53.4% |
| COc1ccc(NC(=O)Nc2ccc(C)c(-c3ccc(C(=O)Nc4ccncc4)cc3)c2)cc1 | 80% |
| O=C(NCCCN1CCOCC1)c1cccc(Nc2nccc(Nc3ccc(Oc4ccccc4)cc3)n2)c1 | 13.4% |
| COc1ccc(Nc2nccc(-c3ccc(NC(=O)c4cc5cc(F)ccc5[nH]4)cc3)n2)cc1 | 60% |
| c1ccc(-c2ccc3c(Nc4ccc5[nH]ccc5c4)ccnc3c2)nc1 | 33.4% |
| COc1cc(Nc2nccc(N3CCC(NC(=O)c4cccc(C#N)c4)C3)n2)cc(OC)c1OC (stereo not drawn) | 0% |
| COc1ccc(CNC(=O)NC2CCN(c3ccnc(Nc4cc(OC)c(OC)c(OC)c4)n3)C2)cc1 (stereo not drawn) | 0% |
| COc1cccc(CNC(=O)NC2CCN(c3ccnc(Nc4cc(OC)c(OC)c(OC)c4)n3)C2)c1 (stereo not drawn) | 66.7% |
| COc1cc2nccc(Nc3ccc(Oc4ccccc4)cc3)c2cc1OC | 0% |
| Nc1ncc(-c2ccc3nccc(-c4ccncc4)c3c2)cc1S(=O)(=O)N1CCCCC1 | 33.4% |
| Cn1ccc(-c2cccc(Nc3ccnc4cc(-c5nccs5)ccc34)c2)n1 | 0% |
| CN1CCN(Cc2cccc(-c3ccc4c(Nc5ccc(Oc6ccccc6)cc5)ccnc4c3)c2)CC1 | 100% |
| COc1ccc(Nc2nccc(N3CCC(NC(=O)Nc4cc(C)ccc4C)C3)n2)cc1 (stereo not drawn) | 0% |
| Cc1cccc(-c2nc(C)cc(Nc3ccncc3)n2)n1 | 0% |

| Structure (SMILES) | MOTILITY REDUCTION/CYTOTOXICITY |
| --- | --- |
| COc1ccc(S(=O)(=O)NC2CCN(c3cc(C)nc(Nc4cccc(C#N)c4)n3)CC2)cc1 | 0% |
| O=C(Nc1cccc(-c2nn3ncccc3c2-c2ccnc(Nc3cccc(C(F)(F)F)c3)n2)c1)c1c(F)cccc1F | 0% |
| O=C(NCCNc1ccnc(Nc2ccc(F)cc2)n1)c1cc2ccccc2s1 | 66.7% |
| COC(=O)c1cccc(NC(=O)NCCNc2ccnc(Nc3ccc(F)cc3)n2)c1 | 0% |
| NS(=O)(=O)c1cccc(-c2ccc3ncc(N4CCOCC4)nc3c2)c1 | 0% |
| COc1ccc(CNC(=O)NC2CCN(c3ccnc(Nc4ccc(F)cc4)n3)CC2)cc1 | 33.4% |
| Cc1ccc(C)c(NC(=O)NCCNc2ccnc(Nc3ccc(F)cc3)n2)c1 | 86.7% |
| COc1ccc(CNC(=O)NC2CCN(c3ccnc(Nc4ccc(F)cc4)n3)C2)cc1 (stereo not drawn) | 0% |
| Oc1cccc(Nc2ccnc3cc(-c4ccncc4)ccc23)c1 | 0% |
| Fc1cc(Cl)ccc1Nc1ccnc2cc(-c3ccc(CN4CCCCC4)o3)ccc12 | 16.7% |
| COc1cc2ncnc(Nc3ccc4nc(-c5ccccc5)[nH]c4c3)c2cc1OC | 73.4% |
| Cc1n[nH]c2cc(Nc3ccnc(Nc4cccc(CN5CCOCC5)c4)n3)ccc12 | 0% |
| O=C(Nc1ccccc1F)NC1CCN(c2ccnc(Nc3ccc(F)cc3)n2)CC1 | 53.4% |
| COc1cc(Nc2nccc(N3CCC(NC(=O)C(C)c4ccc(Cl)cc4)C3)n2)cc(OC)c1OC (stereo not drawn) | 66.7% |
| C[C@@H](Oc1cc(-n2cnc3ccc(NC(=O)NC(C)(C)C)cc32)sc1C(N)=O)c1ccccc1Cl | 60% |
| c1ccc(-c2n[nH]cc2Nc2ccnc3ccccc23)nc1 | 100% |
| Cc1ccc(C)c(NC(=O)Nc2ccc(C)c(-c3ccc(C(=O)Nc4ccncc4)cc3)c2)c1 | 33.4% |
| COC(=O)C(Cc1ccccc1)NC(=O)NC1CCN(c2ccnc(Nc3ccc(F)cc3)n2)C1 (stereo not drawn) | 13.4% |
| COC(=O)c1cccc(NC(=O)NC2CCN(c3ccnc(Nc4ccc(OC)cc4)n3)C2)c1 (stereo not drawn) | 66.7% |
| Cc1n[nH]c2ccc(-c3cc(OC[C@@H](N)Cc4ccccc4)cnc3-c3ccoc3)cc12 | 0% |
| COC(=O)c1cccc(NC(=O)NC2CCN(c3ccnc(Nc4cc(OC)c(OC)c(OC)c4)n3)C2)c1 (stereo not drawn) | 66.7% |
| Nc1ncnc2c1ncn2-c1ccc(Cl)cc1 | 60% |
